Our source for the IC50 values is patent US20100004250A1, “PTERIDINE DERIVATIVES AS POLO-LIKE KINASE INHIBITORS USEFUL IN THE TREATMENT OF CANCER” (CHROMA THERAPEUTICS LTD., priority 2006, published 2010).

Each structure is given as a SMILES string. pIC50: −log10 of the molar value.

Experiment [1] concerns the target T1, PLK1 (Homo sapiens, UniProt P53350).
T1 construct: purchased Invitrogen (Paisley, UK), assay service
Kind of experiment: PLK1 enzyme assay (Z'-LYTE, Invitrogen). It counts as biochemical. Particulars: ATP at or close to Km, 60 minute kinase reaction; read-out: Inhibitor Activity vs PLK1. How it is done: The ability of compounds to inhibit PLK-1 kinase activity was measured in an assay performed by Invitrogen (Paisley, UK). The Z′-LYTE™ biochemical assay employs a fluorescence-based, coupled-enzyme format and is based on the differential sensitivity of phosphorylated and non-phosphorylated peptides to proteolytic cleavage. The peptide substrate is labelled with two fluorophores—one at each end—that make up a FRET pair. In the primary reaction, the kinase transfers the gamma-phosphate of ATP to a single serine or threonine residue in a synthetic FRET-peptide. In the secondary reaction, a site-specific protease recognizes and cleaves non-phosphorylated FRET-peptides. Phosphorylation of FRET-peptides suppresses cleavage by the Development Reagent. Cleavage disrupts FRET between the donor (i.e., coumarin) and acceptor (i.e., fluorescein) fluorophores on the FRET-peptide, whereas uncleaved, phosphorylated FRET-peptides maintain FRET. A […] method, which calculates the ratio (the Emission Ratio) of donor emission to acceptor emission after excitation of the donor fluorophore at 400 nm, is used to quantitate reaction progress.
The final 10 μl Kinase Reaction consists of 2.8-25.3 ng PLK1, 2 μM Ser/Thr 16 Peptide substrate and ATP in 50 mM HEPES pH 7.5, 0.01% BRIJ-35, 10 mM MgCl2, 1 mM EGTA. The assay is performed at an ATP concentration at, or close to, the Km. After the 60 minute Kinase Reaction incubation at room temperature, 5 μl of a 1:8 dilution of Development Reagent is added. The assay plate is incubated for a further 60 minutes at room temperature and read on a fluorescence plate reader.
Duplicate data points are generated from a ⅓ log dilution series of a stock solution of test compound in DMSO. Nine dilutions steps are made from a top concentration of 10 μM, and a “no compound” blank is included. Data is collected and analysed using XLfit software from IDBS. The dose response curve is curve fitted to model number 205 (sigmoidal dose-response model). From the curve generated, the concentration giving 50% inhibition is determined and reported.

Experiment [2] relates to HCT 116 cell line. Kind of experiment: Cell inhibition assay (WST-1 proliferation). Format: cell-based. Conditions: Homo sapiens, 120 hrs incubation, read-out: Inhibitor Activity vs HCT 116 cell line. As to the method: Cells were seeded in 96W tissue culture plates (1 well=30 mm^2) at a density of 500 cells per well in 50 μl of the appropriate culture medium (see below). 24 hrs later 50 μl of the compound prepared in the same medium was added as 4 fold dilutions to give final concentrations in the range 0.15 nM-2500 nM (n=6 for each concentration). The plates were then incubated at 37° C., 5% CO2 for 120 hrs. Cell proliferation was assessed using WST-1 (a metabolic indicator dye, Roche Cat no. 1 644 807) according to the manufacturers instructions. The results were calculated as percentage of vehicle response and IC50 values represent the concentration of compound that inhibited the vehicle response by 50%.
HCT-116 Culture Medium—Dulbeccos MEM (Sigma D6546) plus 10% heat inactivated fetal calf serum (Hyclone SH30071 Thermo Fischer Scientific) containing 2 mM Glutamine (Sigma cat no G-7513) and 50 U/ml Penicillin and Streptomycin Sulphate (Sigma Cat no P-0781).
(In general: Tetrazolium assays rely on reduction of a dye to a coloured formazan, in cell work by metabolically active cells.)

T1 sequence (P53350 whole entry): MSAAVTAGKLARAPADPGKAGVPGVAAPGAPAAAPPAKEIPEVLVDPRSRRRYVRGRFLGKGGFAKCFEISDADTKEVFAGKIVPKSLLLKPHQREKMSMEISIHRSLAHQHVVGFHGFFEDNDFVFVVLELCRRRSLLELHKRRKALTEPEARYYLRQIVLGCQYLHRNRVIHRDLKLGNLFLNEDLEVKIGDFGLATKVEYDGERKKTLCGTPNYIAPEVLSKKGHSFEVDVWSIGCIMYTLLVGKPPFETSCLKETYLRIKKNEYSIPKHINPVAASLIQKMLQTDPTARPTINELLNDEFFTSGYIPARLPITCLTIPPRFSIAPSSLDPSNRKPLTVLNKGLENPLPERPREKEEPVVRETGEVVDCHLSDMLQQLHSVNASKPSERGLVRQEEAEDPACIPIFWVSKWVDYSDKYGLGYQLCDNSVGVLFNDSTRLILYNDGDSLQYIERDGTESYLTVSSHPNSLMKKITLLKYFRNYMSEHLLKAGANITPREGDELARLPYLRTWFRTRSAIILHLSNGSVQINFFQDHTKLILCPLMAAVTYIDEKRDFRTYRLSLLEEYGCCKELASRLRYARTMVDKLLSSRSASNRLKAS

As to `CC[C@@H]1C(=O)N(C)c2cnc(Nc3ccc(C(=O)NC4CCN(CCCC(=O)N[C@@H](CC(C)C)C(=O)OC5CCCC5)CC4)cc3OC)nc2N1C1CCCC1` [Example 1, Cyclopentyl N-(4-{4-[(4-{[(7R)-8-cyclopentyl-7-ethyl-5-methyl-6-oxo-5,6,7,8-tetrahydropteridin-2-yl]amino}-3-methoxybenzoyl)amino]piperidin-1-yl}butanoyl)-L-leucinate], the pIC50 in experiment [1] and in experiment [2] was greater than 7.00 throughout.

In the case of `CC[C@@H]1C(=O)N(C)c2cnc(Nc3ccc(C(=O)NC4CCN(CCCC(=O)N[C@H](CC(C)C)C(=O)OC5CCCC5)CC4)cc3OC)nc2N1C1CCCC1` [Example 2, Cyclopentyl N-(4-{4-[(4-{[(7R)-8-cyclopentyl-7-ethyl-5-methyl-6-oxo-5,6,7,8-tetrahydropteridin-2-yl]amino}-3-methoxybenzoyl)amino]piperidin-1-yl}butanoyl)-D-leucinate], the pIC50 in experiment [1] and in experiment [2] was greater than 7.00 in each case. As for `CC[C@@H]1C(=O)N(C)c2cnc(Nc3ccc(C(=O)NC4CCN(CCCC(=O)N[C@H](C(=O)OC5CCCC5)c5ccccc5)CC4)cc3OC)nc2N1C1CCCC1` [Example 3, Cyclopentyl (2S)-[(4-{4-[(4-{[(7R)-8-cyclopentyl-7-ethyl-5-methyl-6-oxo-5,6,7,8-tetrahydropteridin-2-yl]amino}-3-methoxybenzoyl)amino]piperidin-1-yl}butanoyl)amino](Phenyl)acetate], the pIC50 in experiment [1] and in experiment [2] was greater than 7.00 in each case. With `CC[C@@H]1C(=O)N(C)c2cnc(Nc3ccc(C(=O)NC4CCN(CCCC(=O)N[C@@H](C(=O)OC5CCCC5)c5ccccc5)CC4)cc3OC)nc2N1C1CCCC1` [Example 4, Cyclopentyl (2R)-[(4-{4-[(4-{[(7R)-8-cyclopentyl-7-ethyl-5-methyl-6-oxo-5,6,7,8-tetrahydropteridin-2-yl]amino}-3-methoxybenzoyl)amino]piperidin-1-yl}butanoyl)amino](phenyl)acetate], the pIC50 in experiment [1] and in experiment [2] was greater than 7.00 throughout. Turning to `CC[C@@H]1C(=O)N(C)c2cnc(Nc3ccc(C(=O)NC4CCN(CCCC(=O)N[C@@H](CC(C)C)C(=O)O)CC4)cc3OC)nc2N1C1CCCC1` [Example 18, N-(4-{4-[(4-{[(7R)-8-Cyclopentyl-7-ethyl-5-methyl-6-oxo-5,6,7,8-tetrahydropteridin-2-yl]amino}-3-methoxybenzoyl)amino]piperidin-1-yl}butanoyl)-L-leucine], the pIC50 in experiment [1] was greater than 7.00. For `CC[C@@H]1C(=O)N(C)c2cnc(Nc3ccc(C(=O)NC4CCN(CCCC(=O)N[C@H](CC(C)C)C(=O)O)CC4)cc3OC)nc2N1C1CCCC1` [Example 19, N-(4-{4-[(4-{[(7R)-8-Cyclopentyl-7-ethyl-5-methyl-6-oxo-5,6,7,8-tetrahydropteridin-2-yl]amino}-3-methoxybenzoyl)amino]Piperidin-1-yl}butanoyl)-D-leucine], in experiment [1], the pIC50 is greater than 7.00.

For the compound `CC[C@@H]1C(=O)N(C)c2cnc(Nc3ccc(C(=O)NC4CCN(CCCC(=O)N[C@H](C(=O)O)c5ccccc5)CC4)cc3OC)nc2N1C1CCCC1` [Example 20, (2S)-[(4-{4-[(4-{[(7R)-8-Cyclopentyl-7-ethyl-5-methyl-6-oxo-5,6,7,8-tetrahydropteridin-2-yl]amino}-3-methoxybenzoyl)amino]piperidin-1-yl}butanoyl)amino](phenyl)acetic acid], in experiment [1], the pIC50 is greater than 7.00. Same read-out and setting: the value for `CC[C@@H]1C(=O)N(C)c2cnc(Nc3ccc(C(=O)NC4CCN(CCCC(=O)N[C@@H](C(=O)O)c5ccccc5)CC4)cc3OC)nc2N1C1CCCC1` [Example 21, (2R)-[(4-{4-[(4-{[(7R)-8-Cyclopentyl-7-ethyl-5-methyl-6-oxo-5,6,7,8-tetrahydropteridin-2-yl]amino}-3-methoxybenzoyl)amino]piperidin-1-yl}butanoyl)amino](phenyl)acetic acid] was greater than 7.00; that for `CC[C@@H]1C(=O)N(C)c2cnc(Nc3ccc(C(=O)NC4CCN(CCCC(=O)N[C@@H](C(=O)O)C5CCCCC5)CC4)cc3OC)nc2N1C1CCCC1` [Example 22, (2R)-Cyclohexyl[(4-{4-[(4-{[(7R)-8-cyclopentyl-7-ethyl-5-methyl-6-oxo-5,6,78-tetrahydropteridin-2-yl]amino}-3-methoxybenzoyl)amino]piperidin-1-yl}butanoyl)amino]acetic acid] was greater than 7.00.

As for `CC[C@@H]1C(=O)N(C)c2cnc(Nc3ccc(C(=O)NC4CCN(CCCCC(=O)N[C@@H](CC(C)C)C(=O)O)CC4)cc3OC)nc2N1C1CCCC1` [Example 23, N-(5-[4-[(4-{[(7R)-8-Cyclopentyl-7-ethyl-5-methyl-6-oxo-5,6,7,8-tetrahydropteridin-2-yl]amino}-3-methoxybenzoyl)amino]piperidin-1-yl]pentanoyl)-L-leucine], in experiment [1], the pIC50 is greater than 7.00. The same measure, in the same setting: the value for `CC[C@@H]1C(=O)N(C)c2cnc(Nc3ccc(C(=O)NC4CCN(CC(=O)N[C@@H](CC(C)C)C(=O)O)CC4)cc3OC)nc2N1C1CCCC1` [Example 24, N-({4-[(4-{[(7R)-8-Cyclopentyl-7-ethyl-5-methyl-6-oxo-5,6,7,8-tetrahydropteridin-2-yl]amino}-3-methoxybenzoyl)amino]piperidin-1-yl}acetyl)-L-leucine] was greater than 7.00; that for `CC[C@@H]1C(=O)N(C)c2cnc(Nc3ccc(C(=O)NC4CCN(CCNC(=O)N[C@H](C(=O)O)C5CCCCC5)CC4)cc3OC)nc2N1C1CCCC1` [Example 25, (2S)-Cyclohexyl{[(2-{4-[(4-{[(7R)-8-cyclopentyl-7-ethyl-5-methyl-6-oxo-5,6,7,8-tetrahydropteridin-2-yl]amino}-3-methoxybenzoyl)amino]piperidin-1-yl}ethyl)carbamoyl]amino}acetic acid] was greater than 7.00; that for `CC[C@@H]1C(=O)N(C)c2cnc(Nc3ccc(C(=O)Nc4ccc(CCCC(=O)N[C@@H](CC(C)C)C(=O)O)cc4)cc3OC)nc2N1C1CCCC1` [Example 26, N-(4-{4-[(4-{[(7R)-8-Cyclopentyl-7-ethyl-5-methyl-6-oxo-5,6,7,8-tetrahydropteridin-2-yl]amino}-3-methoxybenzoyl)amino]phenyl}butanoyl)-L-leucine] was greater than 7.00.

On to `CC[C@@H]1C(=O)N(C)c2cnc(Nc3ccc(C(=O)NCCCC(=O)N[C@@H](CC(C)C)C(=O)O)cc3OC)nc2N1C1CCCC1` [Example 27, N-{4-[(4-{[(7R)-8-Cyclopentyl-7-ethyl-5-methyl-6-oxo-5,6,7,8-tetrahydropteridin-2-yl]amino}-3-methoxybenzoyl)amino]butanoyl}-L-leucine], for which the pIC50 in experiment [1] was greater than 7.00. Still for that read-out and setting: the value for `CC[C@@H]1C(=O)N(C)c2cnc(Nc3ccc(/C=C/CCCC(=O)N[C@@H](CC(C)C)C(=O)O)cc3F)nc2N1C1CCCC1` [Example 28, N-[(5E)-6-(4-{[(7R)-8-Cyclopentyl-7-ethyl-5-methyl-6-oxo-5,6,7,8-tetrahydropteridin-2-yl]amino}-3-fluorophenyl)hex-5-enoyl]-L-leucine] was greater than 7.00; that for `CC[C@@H]1C(=O)N(C)c2cnc(Nc3ccc(CCCCCC(=O)N[C@@H](CC(C)C)C(=O)O)cc3F)nc2N1C1CCCC1` [Example 29, N-[6-(4-{[(7R)-8-Cyclopentyl-7-ethyl-5-methyl-6-oxo-5,6,7,8-tetrahydropteridin-2-yl]amino}-3-fluorophenyl)hexanoyl]-L-leucine] was greater than 7.00. Still for that read-out and setting: the value for `CC[C@@H]1C(=O)N(C)c2cnc(Nc3c(F)cc(/C=C/CCCC(=O)N[C@@H](CC(C)C)C(=O)O)cc3F)nc2N1C1CCCC1` [Example 30, N-[(5E)-6-(4-{[(7R)-8-Cyclopentyl-7-ethyl-5-methyl-6-oxo-5,6,7,8-tetrahydropteridin-2-yl]amino}-3,5-difluorophenyl)hex-5-enoyl]-L-leucine] was greater than 7.00. Same read-out and setting: the value for `CC[C@@H]1C(=O)N(C)c2cnc(Nc3ccc(C(=O)N[C@H]4CC[C@@H](CCC(=O)N[C@@H](CC(C)C)C(=O)O)CC4)cc3OC)nc2N1C1CCCC1` [Example 31, N-(3-{cis-4-[(4-{[(7R)-8-Cyclopentyl-7-ethyl-5-methyl-6-oxo-5,6,7,8-tetrahydropteridin-2-yl]amino}-3-methoxybenzoyl)amino]cyclohexyl}propanoyl)-L-leucine] was greater than 7.00.
